Data on 22 compounds can be found in patent US20260092057A1, “BCL-XL/BCL-2 DEGRADERS AND USES THEREOF” (Kymera Therapeutics, Inc., priority 2022, published 2026).

Where two headings read alike, the source gives them in different places.

Assay [1] deals with MOLT-4 cells. The experiment in a line: CTG (CellTiter-Glo) cell viability assay, MOLT-4. The assay is classed as cell-based. The note with it: MOLT-4, 3 day, read-out: CTG Cell Viability Assay - MOLT-4 3 day: Average external-IC50. As to the method:
(§1) Compound-mediated viability effect on MOLT-4 and Caki-2 was quantitatively determined using the CellTiter-Glo® Luminescent Cell Viability Assay kit from Promega (Catalog number G7570) following manufacturer's recommended procedures. Briefly, MOLT-4 and Caki-2 cells were seeded into 384 well plates (Grenier Bio-One, Catalog number 781080) with a density of 10,000 cells per well. Compounds were then added to the assay plate with final top concentration of 10 µM and 1:3 dilution series with total of 9 doses. The final DMSO concentration is normalized to 0.2%. The assay plates were incubated at 37° C. for 3 days under 5% CO2. Then the assay plate was equilibrated at room temperature for 10 minutes. To determine cell viability, 30 uL CellTiter Glo reagent was added to each well and the assay plate was centrifuged at 1000 rpm for 30 second, incubated at room temperature for 10 min, and analyzed by detecting the luminescence using a multimode plate reader (EnVision 2105, PerkinElmer). The data was then analyzed by software Prism 7.0 from GraphPad and the dose response curves are fit using a three-parameter logistic equation to calculate IC50.
(§2) The letter codes for MOLT-4 IC50 include: A (<0.1 μM); B (0.1-1.0 μM); C (>1.0-3.0 μM); and D (>3.0 μM). The letter codes for Caki-2 IC50 include: A (<5 μM); B (5-10 μM); C (>10-30.0 μM); and D (>30.0 μM).

For assay [2], the system named is Caki-2 cells. The experiment in a line: CTG (CellTiter-Glo) cell viability assay, Caki-2. The assay is classed as cell-based. The note with it: Homo sapiens, CAKI-2, 72 h, Caki-2, 3-day; read-out: CTG Chempartner/PHA- Caki-2 3-day: Average external-IC50. On the procedure: as §1, §2

On to `Cc1ncsc1-c1ccc([C@H](C)NC(=O)[C@@H]2C[C@@H](O)CN2C(=O)[C@@H](NC(=O)CCCCCC(=O)N2CCN(C[C@]3(C)CCC(c4ccc(Cl)cc4)=C(CN4CCN(c5ccc(C(=O)NS(=O)(=O)c6ccc(NCCCN7CCOCC7)c(S(=O)(=O)C(F)(F)F)c6)c(Oc6cnc7[nH]ccc7c6)c5)CC4)C3)CC2)C(C)(C)C)cc1` [I-130], for which the IC50 in assay [1] was 1000 to 3000 nM; in assay [2], more than 30000 nM.
With `Cc1ncsc1-c1ccc([C@H](C)NC(=O)[C@@H]2C[C@@H](O)CN2C(=O)[C@@H](NC(=O)CCCCCC(=O)N2CCN(CC[C@H](CSc3ccccc3)Nc3ccc(S(=O)(=O)NC(=O)c4ccc(N5CCC6(CN(C)C6)C5)cc4)cc3S(=O)(=O)C(F)(F)F)CC2)C(C)(C)C)cc1` [I-50], the IC50 in assay [1] (Homo sapiens, MOLT-4, 72 h) was more than 3000 nM; in assay [2], more than 30000 nM.
In the case of `Cc1ncsc1-c1ccc([C@H](C)NC(=O)[C@@H]2C[C@@H](O)CN2C(=O)[C@@H](NC(=O)CCCCCC(=O)N2CCN(c3ccc(-c4ccc(Cl)cc4)c(CN4CCN(c5ccc(C(=O)NS(=O)(=O)c6ccc(NCCCN(C)C)c(S(=O)(=O)C(F)(F)F)c6)c(Oc6cnc7[nH]ccc7c6)c5)CC4)c3)CC2)C(C)(C)C)cc1` [I-99], the IC50 in assay [1] (Homo sapiens, MOLT-4, 72 h) was more than 3000 nM; in assay [2], more than 30000 nM.
With `Cc1ncsc1-c1ccc([C@H](C)NC(=O)[C@@H]2C[C@@H](O)CN2C(=O)[C@@H](NC(=O)CCCCCC(=O)N2CCN(CC[C@H](CSc3ccccc3)Nc3ccc(S(=O)(=O)NC(=O)c4ccc(N5CC[C@@H](N(C)C)C5)cc4)cc3S(=O)(=O)C(F)(F)F)CC2)C(C)(C)C)cc1` [I-46], the IC50 was more than 3000 nM in assay [1] (Homo sapiens, MOLT-4, 72 h) and more than 30000 nM in assay [2].
Regarding `Cc1ncsc1-c1ccc([C@H](C)NC(=O)[C@@H]2C[C@@H](O)CN2C(=O)[C@@H](NC(=O)CCCCCC(=O)NCCCNc2ccc(S(=O)(=O)NC(=O)c3ccc(N4CCN(CC5=C(c6ccc(Cl)cc6)CC(C)(C)CC5)CC4)cc3Oc3cnc4[nH]ccc4c3)cc2S(=O)(=O)C(F)(F)F)C(C)(C)C)cc1` [I-76], the IC50 in assay [1] (Homo sapiens, MOLT-4, 72 h) was more than 3000 nM; in assay [2], more than 30000 nM.
Taken in the same sequence, the figures for `Cc1ncsc1-c1ccc([C@H](C)NC(=O)[C@@H]2C[C@@H](O)CN2C(=O)[C@@H](NC(=O)CCC(=O)N2CCN(CCCNc3ccc(S(=O)(=O)NC(=O)c4ccc(N5CCN(CC6=C(c7ccc(Cl)cc7)CC(C)(C)CC6)CC5)cc4Oc4cnc5[nH]ccc5c4)cc3S(=O)(=O)C(F)(F)F)CC2)C(C)(C)C)cc1` [I-79] were more than 3000 nM and more than 30000 nM.
In the case of `Cc1ncsc1-c1ccc([C@H](C)NC(=O)[C@@H]2C[C@@H](O)CN2C(=O)[C@@H](NC(=O)CCCCCC(=O)N(C)CC[C@H](CSc2ccccc2)Nc2ccc(S(=O)(=O)NC(=O)c3ccc(N4CCC(C(O)c5ccccc5-c5ccc(Cl)cc5)CC4)cc3)cc2S(=O)(=O)C(F)(F)F)C(C)(C)C)cc1` (some centres unmarked) [I-71], the IC50 in assay [1] (Homo sapiens, MOLT-4, 72 h) lay in the range of 1000 to 3000 nM; in assay [2] it was 10000 to 30000 nM.
Taken in the same sequence, the figures for `Cc1ncsc1-c1ccc([C@H](C)NC(=O)[C@@H]2C[C@@H](O)CN2C(=O)[C@@H](NC(=O)CCCCCC(=O)N2CCN(CCNc3ccc(S(=O)(=O)NC(=O)c4ccc(N5CCN(CC6=C(c7ccc(Cl)cc7)CC(C)(C)CC6)CC5)cc4Oc4cnc5[nH]ccc5c4)cc3S(=O)(=O)C(F)(F)F)CC2)C(C)(C)C)cc1` [I-97] were more than 3000 nM and more than 30000 nM.
`Cc1ncsc1-c1ccc([C@H](C)NC(=O)[C@@H]2C[C@@H](O)CN2C(=O)[C@@H](NC(=O)CCCCCCC(=O)N2CCN(C[C@]3(C)CCC(c4ccc(Cl)cc4)=C(CN4CCN(c5ccc(C(=O)NS(=O)(=O)c6ccc(NCCN7CCOCC7)c(S(=O)(=O)C(F)(F)F)c6)c(Oc6cnc7[nH]ccc7c6)c5)CC4)C3)CC2)C(C)(C)C)cc1` [I-93]: the IC50 in assay [1] (Homo sapiens, MOLT-4, 72 h) was 1000 to 3000 nM; in assay [2] it was more than 30000 nM.
The like results for `Cc1ncsc1-c1ccc(CNC(=O)[C@@H]2C[C@@H](O)CN2C(=O)[C@@H](NC(=O)C2(F)CC2)C(C)(C)C)c(OCCCCCCC(=O)N2CCN(Cc3ccc(-c4ccc(Cl)cc4)c(CN4CCN(c5ccc(C(=O)NS(=O)(=O)c6ccc(N[C@H](CCN(C)C)CSc7ccccc7)c([N+](=O)[O-])c6)cc5)CC4)c3)CC2)c1` [I-18] were, in that order, more than 3000 nM and more than 30000 nM.
As to `Cc1ncsc1-c1ccc([C@H](C)NC(=O)[C@@H]2C[C@@H](O)CN2C(=O)[C@@H](NC(=O)CCCCCC(=O)N2CCN(CCCNc3ccc(S(=O)(=O)NC(=O)c4ccc(N5CCC(C)(C)CC5)cc4Oc4cnc5[nH]ccc5c4)cc3S(=O)(=O)C(F)(F)F)CC2)C(C)(C)C)cc1` [I-54], the IC50 was more than 3000 nM in assay [1] (Homo sapiens, MOLT-4, 72 h) and more than 30000 nM in assay [2].
The like results for `Cc1ncsc1-c1ccc([C@H](C)NC(=O)[C@@H]2C[C@@H](O)CN2C(=O)[C@@H](NC(=O)CCCCCC(=O)N2CCN(CC[C@H](CSc3ccccc3)Nc3ccc(S(=O)(=O)NC(=O)c4ccc(N5CC(N(C)C)C5)cc4)cc3S(=O)(=O)C(F)(F)F)CC2)C(C)(C)C)cc1` [I-49] were, in that order, more than 3000 nM and more than 30000 nM.
Taken in the same sequence, the figures for `Cc1ncsc1-c1ccc([C@H](C)NC(=O)[C@@H]2C[C@@H](N)CN2C(=O)[C@@H](NC(=O)C2CCN(CCCNc3ccc(S(=O)(=O)NC(=O)c4ccc(N5CCC([C@@H](O)c6ccccc6-c6ccc(Cl)cc6)CC5)cc4Oc4cnc5[nH]ccc5c4)cc3S(=O)(=O)C(F)(F)F)CC2)C(C)(C)C)cc1` (single isomer, unassigned) [I-91] were more than 3000 nM and more than 30000 nM.
The like results for `C#Cc1ccc([C@H](C)NC(=O)[C@@H]2C[C@@H](O)CN2C(=O)[C@@H](NC(=O)CCCCCC(=O)N2CCN(CCCNc3ccc(S(=O)(=O)NC(=O)c4ccc(N5CCN(CC6=C(c7ccc(Cl)cc7)CC(C)(C)CC6)CC5)cc4Oc4cnc5[nH]ccc5c4)cc3S(=O)(=O)C(F)(F)F)CC2)C(C)(C)C)c(OC)c1` [I-103] were, in that order, 100 to 1000 nM and more than 30000 nM.
In the case of `Cc1ncsc1-c1ccc([C@H](C)NC(=O)[C@@H]2C[C@@H](O)CN2C(=O)[C@@H](NC(=O)CCCC(=O)N2CCN(CCCNc3ccc(S(=O)(=O)NC(=O)c4ccc(N5CCC([C@@H](O)c6ccccc6-c6ccc(Cl)cc6)CC5)cc4Oc4cnc5[nH]ccc5c4)cc3S(=O)(=O)C(F)(F)F)CC2)C(C)(C)C)cc1` (single isomer, unassigned) [I-59], the IC50 was more than 3000 nM in assay [1] (Homo sapiens, MOLT-4, 72 h) and more than 30000 nM in assay [2].
Taken in the same sequence, the figures for `Cc1ncsc1-c1ccc([C@H](C)NC(=O)[C@@H]2C[C@@H](O)CN2C(=O)[C@@H](NC(=O)CCCc2ccc(NCCNc3ccc(S(=O)(=O)NC(=O)c4ccc(N5CCN(CC6=C(c7ccc(Cl)cc7)CC(C)(C)CC6)CC5)cc4Oc4cnc5[nH]ccc5c4)cc3S(=O)(=O)C(F)(F)F)cc2)C(C)(C)C)cc1` [I-101] were more than 3000 nM and more than 30000 nM.
On to `Cc1ncsc1-c1ccc([C@H](C)NC(=O)[C@@H]2C[C@@H](O)CN2C(=O)[C@@H](NC(=O)C2CCN(c3ccc(NC(=O)c4ccc(-c5ccc(Cl)cc5)c([C@@H](O)C5CCN(c6ccc(C(=O)NS(=O)(=O)c7ccc(N[C@H](CCN(C)CCO)CSc8ccccc8)c(S(=O)(=O)C(F)(F)F)c7)cc6)CC5)c4)cc3)CC2)C(C)(C)C)cc1` [I-123], for which the IC50 in assay [1] (Homo sapiens, MOLT-4, 72 h) is more than 3000 nM; in assay [2], more than 30000 nM.
The like results for `Cc1ncsc1-c1ccc([C@H](C)NC(=O)[C@@H]2C[C@@H](O)CN2C(=O)[C@@H](NC(=O)CCCCCNc2ccc(S(=O)(=O)NC(=O)c3ccc(N4CCN(CC5=C(c6ccc(Cl)cc6)CC(C)(C)CC5)CC4)cc3Oc3cnc4[nH]ccc4c3)cc2S(=O)(=O)C(F)(F)F)C(C)(C)C)cc1` [I-80] were, in that order, more than 3000 nM and more than 30000 nM.
On to `Cc1ncsc1-c1ccc([C@H](C)NC(=O)[C@@H]2C[C@@H](O)CN2C(=O)[C@@H](NC(=O)CCCCCC(=O)N2CC3(CN(CCCNc4ccc(S(=O)(=O)NC(=O)c5ccc(N6CCN(CC7=C(c8ccc(Cl)cc8)CC(C)(C)CC7)CC6)cc5Oc5cnc6[nH]ccc6c5)cc4S(=O)(=O)C(F)(F)F)C3)C2)C(C)(C)C)cc1` [I-107], for which the IC50 in assay [1] (Homo sapiens, MOLT-4, 72 h) was 100 to 1000 nM; in assay [2] it was more than 30000 nM.
Consider `Cc1ncsc1-c1ccc([C@H](C)NC(=O)[C@@H]2C[C@@H](O)CN2C(=O)[C@@H](NC(=O)CCCCCC(=O)N2CCN(CC[C@H](CSc3ccccc3)Nc3ccc(S(=O)(=O)NC(=O)c4ccc(N5CCN(C)CC5)cc4)cc3S(=O)(=O)C(F)(F)F)CC2)C(C)(C)C)cc1` [I-53], for which the IC50 in assay [1] (Homo sapiens, MOLT-4, 72 h) is more than 3000 nM; in assay [2], more than 30000 nM.
With `Cc1ncsc1-c1ccc([C@H](C)NC(=O)[C@@H]2C[C@@H](O)CN2C(=O)[C@@H](NC(=O)CCCCCN(C)CCCNc2ccc(S(=O)(=O)NC(=O)c3ccc(N4CCC([C@@H](O)c5ccccc5-c5ccc(Cl)cc5)CC4)cc3Oc3cnc4[nH]ccc4c3)cc2S(=O)(=O)C(F)(F)F)C(C)(C)C)cc1` [I-66], the IC50 in assay [1] (Homo sapiens, MOLT-4, 72 h) was more than 3000 nM; in assay [2], more than 30000 nM.
Regarding `Cc1ncsc1-c1ccc([C@H](C)NC(=O)[C@@H]2C[C@@H](O)CN2C(=O)[C@@H](NC(=O)CCCCCC(=O)N2CCN(Cc3ccc(-c4ccc(Cl)cc4)c([C@@H](O)C4CCN(c5ccc(C(=O)NS(=O)(=O)c6ccc(NCCCN(C)C)c(S(=O)(=O)C(F)(F)F)c6)c(Oc6cnc7[nH]ccc7c6)c5)CC4)c3)CC2)C(C)(C)C)cc1` [I-112], the IC50 was more than 3000 nM in assay [1] (Homo sapiens, MOLT-4, 72 h) and more than 30000 nM in assay [2].
